US4075192A, “Nonapeptides and methods for their production” (Parke, Davis & Company, priority 1977, dated 1978)
Non-standard residues stand in square brackets, D forms with d. Residues, ends and D or L forms follow the SMILES beside them. No end group written: not given here. *: point of attachment. pGlu = O=C1CC[C@@H](C(=O)O)N1; Orn = NCCC[C@H](N)C(=O)O; Bn = c1ccc(C*)cc1

Test system: LRF (luteinizing hormone releasing factor) induced luteinizing hormone (LH) release
Assay: In vitro LRF antagonist test in rat anterior pituitary cell cultures
Type: cell-based
Text: Nonapeptides of this invention were screened for LRF antagonist activity in vitro using rat anterior pituitary cell cultures as described by Vale et al. [Endocrinology, 91, 562 (1972)]. The inhibition of LRF (luteinizing hormone releasing factor) induced luteinizing hormone (LH) release into the culture medium is the endpoint in this in vitro bioassay.

| Compound | LH Value (LRF alone, Molar Conc. 2.5×10^-10) | LH Value (compound Molar Conc. 1×10^-6, LH released into culture medium) | % LH Release Inhibition (compound Molar Conc. 1×10^-6, inhibition of LRF induced LH release) |
| --- | --- | --- | --- |
| LRF Control: luteinizing hormone releasing factor, also referred to as luteinizing hormone releasing hormone, LH-RH; stimulates secretion of luteinizing hormone (QHWSYGLRPG; ends and bridges not checked; UniProt P01148 24-33, looked up) [reference compound] | 39.98 ng/mL | – | – |
| CCNC(=O)[C@@H]1CCCN1C(=O)[C@H](CCCN)NC(=O)[C@H](CC(C)C)NC(=O)[C@@H](C)NC(=O)[C@H](COCc1ccccc1)NC(=O)[C@H](Cc1ccc(OCc2ccccc2)cc1)NC(=O)[C@H](Cc1c[nH]c2ccccc12)NC(=O)[C@@H](Cc1ccccc1)NC(=O)[C@@H]1CCC(=O)N1 [L-pyroglutamyl-D-phenylalanyl-L-tryptophyl-O-benzyl-L-tyrosyl-O-benzyl- L-seryl-D-alanyl-L-leucyl-L-ornithyl-L-proline N-ethylamide] ([pGlu][dF]WY(Bn)S(Bn)[dA]L[Orn]P-NHEt) | – | 19.15 ng/mL | 61% |
